Experimental findings from article PMC4418665, “Cyclization of the Urokinase Receptor-Derived Ser-Arg-Ser-Arg-Tyr Peptide Generates a Potent Inhibitor of Trans-Endothelial Migration of Monocytes” (PLoS ONE, 2015) are described below.

Molecules are shown by their SMILES. Peptide text beside a SMILES is read from it.

The test deals with T1, FPR1 (Homo sapiens, UniProt P21462).
T1 sequence (P21462 1-350): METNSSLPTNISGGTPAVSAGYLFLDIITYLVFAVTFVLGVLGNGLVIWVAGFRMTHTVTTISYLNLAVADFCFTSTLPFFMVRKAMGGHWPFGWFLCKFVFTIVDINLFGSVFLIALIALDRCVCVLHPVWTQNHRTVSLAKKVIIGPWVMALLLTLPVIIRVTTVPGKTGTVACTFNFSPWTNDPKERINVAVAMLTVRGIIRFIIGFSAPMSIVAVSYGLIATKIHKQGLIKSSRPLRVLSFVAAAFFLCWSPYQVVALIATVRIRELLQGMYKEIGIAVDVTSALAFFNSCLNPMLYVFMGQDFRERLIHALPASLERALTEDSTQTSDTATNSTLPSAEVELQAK
The experiment in a line: Agonist-induced FPR1 internalization at 37°C, fluorescence microscopy, THP-1 cells. It counts as cell-based. Also noted: host or cells: THP-1 human monocytic leukemia cells. The conditions noted are these: excess (100 nM) unlabelled peptide 30 min at 37°C, then 10 nM FITC-fMLF 30 min at 37°C. The method, then: Once documented that both SRSRY and [SRSRY] peptides compete with fMLF for binding to FPR1, we investigated the effect of [SRSRY] on the motility of monocytes. Preliminarily, we assessed whether [SRSRY] is a ligand of FPR1 on monocyte cell surface. […] (Fig 3A). When binding experiments were performed at 37°C, FPR1 appeared mainly localized within the cytoplasm, adjacent but outside the nucleus of THP-1 cells.
Fig 3 The peptide [SRSRY] binds to FPR1 on THP-1 cell surface. A. THP-1 cells (1.5 x10^6 cells/sample) were pre-incubated with diluents (None), 100 nM fMLF, 100 nM SRSRY or 100 nM [SRSRY] peptides for 60 minutes at 4°C, then exposed to 10 nM N-formyl-Nle-Leu-Phe-Nle-Tyr-Lys-fluorescein (FITC-fMLF) for additional 60 minutes at 4°C. Fluorimetric measurement of cell-associated fluorescence was assed using 485 nm excitation and 535 nm emission filters. Data are expressed as a percentage of the fluorescence associated to THP-1 cells exposed to FITC-fMLF alone (None = 100%) and represent a mean ± SD from triplicates. *Statistical significance (t-test) against None with p<0.001. B. THP-1 cells incubated with diluents (None), 100 nM fMLF, 100 nM SRSRY or 100 nM [SRSRY] peptides for 30 minutes at 37°C and exposed to 10 nM FITC-fMLF for additional 30 minutes at 37°C. Scale bar: 5 μm. Original magnifications: 630x. […]

Turning to `N=C(N)NCCC[C@@H]1NC(=O)[C@H](CO)NC(=O)[C@H](Cc2ccc(O)cc2)NC(=O)[C@H](CCCNC(=N)N)NC(=O)[C@H](CO)NC1=O` [[SRSRY], [Ser-Arg-Ser-Arg-Tyr]] (cyclo(RSRYS)), the “internalization of fluorescent agonist in THP-1 cells” value is recorded as “dramatically reduced”.
